Literature values, collected in patent US7829717B2, “(Arylamidoaryl)squaramide compounds” (OSI Pharmaceuticals, Inc., priority 2004, dated 2010).
Where a name gives a salt, the structure may show the parent alone.

Tested on: MO7e human leukemia cells

Compound: Cc1ccc(NC(=O)c2ccc(CN3CCN(C)CC3)cc2)cc1Nc1nccc(-c2cccnc2)n1 [Gleevec, imatinib mesylate]
- GM-CSF stimulated growth of MO7e human leukemia cells (GM-CSF stimulated): not affected
- Kit ligand-stimulated growth of MO7e human leukemia cells (Kit ligand-stimulated): inhibited
